# Source: US20220073525A1, “COMPOSITIONS FOR INHIBITING UBIQUITIN SPECIFIC PROTEASE 1” (FORMA Therapeutics, Inc., priority 2019, published 2022)
# Target: USP1 (Homo sapiens, UniProt O94782)
# Test: Biochemical Assay for USP1 Inhibition (Ub-Rho 110 fluorescence)
# Conditions: Table 5; 30 min preincubation, Enzyme 0.025 nM, Substrate Ub-Rho 110 25 nM; read-out: IC50 (μm)
# Procedure: The assay was performed in a final volume of 6 μL in assay buffer containing 20 mM Tris-HCl pH 8.0, (1 M Tris-HCl, pH 8.0 solution; Corning 46-031-CM), 1 mM GSH (L-glutathione reduced, Sigma-Aldrich, G4251-100G), 0.03% BGG (0.22 μM filtered, Sigma, G7516-25G), and 0.01% Triton X-100 (Sigma, T9284-10L). Nanoliter quantities of 10-point, 3-fold serial dilution in DMSO were pre-dispensed into 1536 assay plates (Corning, #3724BC) for a final test concentration of 25 μM to 1.3 nM, top to lowest dose, respectively. Concentration and incubation times were optimized for the maximal signal-to-background while maintaining initial velocity conditions at a fixed substrate concentration (<<Km). 3 μL of 2× Enzyme was added to assay plates (pre-stamped with compound), preincubated for 30 min, and then treated with 3 μL of 2× Substrate (Ub-Rho 110, UbiQ-126). Final concentrations of Enzyme and Substrate are 0.025 nM and 25 nM, respectively. Plates were read using a kinetic protocol continuously for 11 min on the Envision (Perkin Elmer) or PheraSTAR (BMG), excitation at 485 nm and emission at 535 nm or excitation at 520 nm and emission at 590 nm. For all assay formats, data were reported as percent inhibition compared with control wells based on the following equation: % inh=100*([…]), where FLU=measured Fluorescence, AveLow=average Fluorescence of no enzyme control (n=32), and AveHigh=average Fluorescence of DMSO control (n=32). IC50 values were determined by curve fitting of the standard 4 parameter logistic fitting algorithm included in the Activity Base software package: TDBS XE Designer Model205. Data is fitted using the Levenburg Marquardt algorithm.
# In Table 5, absolute stereochemistry has not been determined for some Compounds. Accordingly, assignment ofany Compounds as the “R” or “S” stereoisomer is arbitrary, unless otherwise noted. In some cases, Compounds are labeled with “1st eluting isomer”, “2nd eluting isomer”, etc. based on the purification method used to separate the stereoisomers.
# Chain of USP1 (O94782 whole entry): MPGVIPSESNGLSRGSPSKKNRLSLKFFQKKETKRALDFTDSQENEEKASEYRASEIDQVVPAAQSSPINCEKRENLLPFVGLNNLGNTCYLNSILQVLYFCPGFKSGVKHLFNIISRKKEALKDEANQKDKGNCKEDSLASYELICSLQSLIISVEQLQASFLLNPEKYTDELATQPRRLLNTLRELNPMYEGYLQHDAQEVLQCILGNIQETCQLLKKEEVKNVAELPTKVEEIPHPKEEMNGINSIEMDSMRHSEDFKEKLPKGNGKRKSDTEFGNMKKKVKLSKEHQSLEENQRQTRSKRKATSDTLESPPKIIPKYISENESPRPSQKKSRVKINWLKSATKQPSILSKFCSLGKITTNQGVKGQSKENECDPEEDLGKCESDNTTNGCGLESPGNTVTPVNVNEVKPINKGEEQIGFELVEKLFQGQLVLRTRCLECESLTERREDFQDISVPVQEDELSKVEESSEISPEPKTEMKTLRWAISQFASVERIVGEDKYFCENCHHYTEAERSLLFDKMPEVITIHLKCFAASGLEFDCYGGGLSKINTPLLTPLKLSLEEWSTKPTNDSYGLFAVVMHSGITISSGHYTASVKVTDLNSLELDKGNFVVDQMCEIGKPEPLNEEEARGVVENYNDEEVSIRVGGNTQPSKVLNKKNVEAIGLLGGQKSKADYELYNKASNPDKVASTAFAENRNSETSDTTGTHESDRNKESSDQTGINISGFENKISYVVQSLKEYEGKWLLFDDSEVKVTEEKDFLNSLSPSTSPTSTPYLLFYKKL
# Chain of USP1 (Q8TAF3 whole entry partner): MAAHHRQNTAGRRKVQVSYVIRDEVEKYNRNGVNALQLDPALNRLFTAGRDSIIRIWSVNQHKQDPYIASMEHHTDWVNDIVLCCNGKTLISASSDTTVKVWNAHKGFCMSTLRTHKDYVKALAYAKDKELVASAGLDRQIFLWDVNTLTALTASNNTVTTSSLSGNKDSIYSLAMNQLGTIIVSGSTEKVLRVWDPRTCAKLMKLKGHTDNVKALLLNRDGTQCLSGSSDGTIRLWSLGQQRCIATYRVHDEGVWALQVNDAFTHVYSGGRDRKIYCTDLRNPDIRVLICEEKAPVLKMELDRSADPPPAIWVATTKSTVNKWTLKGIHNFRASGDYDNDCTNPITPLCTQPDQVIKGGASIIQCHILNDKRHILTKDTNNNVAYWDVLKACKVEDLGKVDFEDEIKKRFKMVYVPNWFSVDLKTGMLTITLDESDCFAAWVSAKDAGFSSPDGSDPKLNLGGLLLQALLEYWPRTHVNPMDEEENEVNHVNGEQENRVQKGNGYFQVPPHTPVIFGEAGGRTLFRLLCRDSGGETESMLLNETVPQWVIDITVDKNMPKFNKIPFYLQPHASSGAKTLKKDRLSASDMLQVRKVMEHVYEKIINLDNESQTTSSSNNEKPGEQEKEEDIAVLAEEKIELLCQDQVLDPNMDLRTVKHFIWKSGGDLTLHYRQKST
row,Structure (SMILES),IC50 [µM]
1,"Cc1nc(-c2cccnc2C(C)C)c2n1CC(C)N(c1ccc(-c3nc(C(F)(F)F)cn3C)cc1)C2 (single isomer, unassigned) [Compound 8-1, 3-[3,6-dimethyl-7-{4-[1-methyl-4-(trifluoromethyl)-1H-imidazol-2-yl]phenyl}-5H,6H,7H,8H-imidazo[1,5-a]pyrazin-1-yl]-2-(propan-2-yl)pyridine]",≤ 1
2,"Cc1nc(-c2cccnc2OC(F)F)c2n1CC(C)N(c1ccc(-c3nc(C(F)(F)F)cn3C)cc1)C2 (single isomer, unassigned) [Compound 27-1, 2-(difluoromethoxy)-3-[-3,6-dimethyl-7-{4-[1-methyl-4-(trifluoromethyl)-1H-imidazol-2-yl]phenyl}-5H,6H,7H,8H-imidazo[1,5-a]pyrazin-1-yl]pyridine]",≤ 1
3,"Cc1nc(-c2cccnc2OC(F)F)c2n1CCN(c1ccc(-c3nc(C(F)(F)F)cn3C)cc1)C2C (single isomer, unassigned) [Compound 52-1, 2-(difluoromethoxy)-3-[-3,8-dimethyl-7-{4-[1-methyl-4-(trifluoromethyl)-1H-imidazol-2-yl]phenyl}-5H,6H,7H,8H-imidazo[1,5-a]pyrazin-1-yl]pyridine]",≤ 1
4,"Cc1nc(-c2cccnc2OC(F)F)c2n1CCN(c1ccc(-c3nc(C(F)(F)F)cn3C)cc1)C2C (single isomer, unassigned) [Compound 52-2, 2-(difluoromethoxy)-3-[-3,8-dimethyl-7-{4-[1-methyl-4-(trifluoromethyl)-1H-imidazol-2-yl]phenyl}-5H,6H,7H,8H-imidazo[1,5-a]pyrazin-1-yl]pyridine]",1 to 10
5,"Cc1nc(-c2cccnc2C(C)C)c2n1C(C)CN(c1ccc(-c3nc(C(F)(F)F)cn3C)cc1)C2 (single isomer, unassigned) [Compound 72-1, 3-[-3,5-dimethyl-7-{4-[1-methyl-4-(trifluoromethyl)-1H-imidazol-2-yl]phenyl}-5H,6H,7H,8H-imidazo[1,5-a]pyrazin-1-yl]-2-(propan-2-yl)pyridine]",≤ 1
6,"Cc1nc(-c2cccnc2C(C)C)c2n1CCN(c1ccc(-c3nc(C(F)(F)F)cn3C)cc1)C2 [Compound 1, 1-(2-isopropylpyridin-3-yl)-3-methyl-7-(4-(1-methyl-4-(trifluoromethyl)-1H-imidazol-2-yl)phenyl)-5,6,7,8-tetrahydroimidazo[1,5-a]pyrazine]",≤ 1
7,"CC(C)c1ncccc1-c1nc(C(F)(F)F)n2c1CN(c1ccc(-c3nc(C(F)(F)F)cn3C)cc1)CC2 [Compound 2, 3-(7-{4-[1-methyl-4-(trifluoromethyl)-1H-imidazol-2-yl]phenyl}-3-(trifluoromethyl)-5H,6H,7H,8H-imidazo[1,5-a]pyrazin-1-yl)-2-(propan-2-yl)pyridine]",≤ 1
8,"Cc1nc(-c2ccccc2C(C)C)c2n1CCN(c1ccc(-c3nc(C(F)(F)F)cn3C)cc1)C2 [Compound 3, 1-methyl-2-(4-{3-methyl-1-[2-(propan-2-yl)phenyl]-5H,6H,7H,8H-imidazo[1,5-a]pyrazin-7-yl}phenyl)-4-(trifluoromethyl)-1H-imidazole]",≤ 1
9,"CC(C)c1ncccc1-c1ncn2c1CN(c1ccc(-c3nc(C(F)(F)F)cn3C)cc1)CC2 [Compound 4, 3-(7-{4-[1-methyl-4-(trifluoromethyl)-1H-imidazol-2-yl]phenyl}-5H,6H,7H,8H-imidazo[1,5-a]pyrazin-1-yl)-2-(propan-2-yl)pyridine]",≤ 1
10,"Cc1nc(-c2cccnc2C(C)C)c2n1CCN(c1ccc(F)cc1)C2 [Compound 5, 3-[7-(4-fluorophenyl)-3-methyl-5H,6H,7H,8H-imidazo[1,5-a]pyrazin-1-yl]-2-(propan-2-yl)pyridine]",> 25
11,"Cc1nc(-c2cccnc2C(C)C)c2n1CCN(c1ccc(C#N)cc1)C2 [Compound 6, 4-{3-methyl-1-[2-(propan-2-yl)pyridin-3-yl]-5H,6H,7H,8H-imidazo[1,5-a]pyrazin-7-yl}benzonitrile]",> 25
12,"Cc1nc(-c2cccnc2C(C)C)c2n1CCN(c1ccc(-c3nc(C(F)(F)F)cn3C)cc1)C2C (stereo not drawn) [Compound 7, 3-(3,8-dimethyl-7-{4-[1-methyl-4-(trifluoromethyl)-1H-imidazol-2-yl]phenyl}-5H,6H,7H,8H-imidazo[1,5-a]pyrazin-1-yl)-2-(propan-2-yl)pyridine]",≤ 1
13,"Cc1nc(-c2cccnc2C(C)C)c2n1CCN(c1ccc(-n3cccn3)cc1)C2 [Compound 9, 3-{3-methyl-7-[4-(1H-pyrazol-1-yl)phenyl]-5H,6H,7H,8H-imidazo[1,5-a]pyrazin-1-yl}-2-(propan-2-yl)pyridine]",1 to 10
14,"Cc1nc(-c2cccnc2C(C)C)c2n1CCN(c1ncccn1)C2 [Compound 10, 2-{3-methyl-1-[2-(propan-2-yl)pyridin-3-yl]-5H,6H,7H,8H-imidazo[1,5-a]pyrazin-7-yl}pyrimidine]",> 25
15,"Cc1nc(-c2cccnc2C(C)C)c2n1CCN(c1cnccn1)C2 [Compound 11, 2-{3-methyl-1-[2-(propan-2-yl)pyridin-3-yl]-5H,6H,7H,8H-imidazo[1,5-a]pyrazin-7-yl}pyrazine]",> 25
16,"Cc1nc(-c2cccnc2C(C)C)c2n1CCN(c1cccc3[nH]ccc13)C2 [Compound 12, 4-{3-methyl-1-[2-(propan-2-yl)pyridin-3-yl]-5H,6H,7H,8H-imidazo[1,5-a]pyrazin-7-yl}-1H-indole]",> 25
17,"Cc1nc(-c2cccnc2C(C)C)c2n1CCN(c1ccc(-c3nc(C(F)(F)F)cn3C)cn1)C2 [Compound 13, 2-{3-methyl-1-[2-(propan-2-yl)pyridin-3-yl]-5H,6H,7H,8H-imidazo[1,5-a]pyrazin-7-yl}-5-[1-methyl-4-(trifluoromethyl)-1H-imidazol-2-yl]pyridine]",≤ 1
18,"Cc1nc(-c2cccnc2C(C)C)c2n1CCN(c1ccc(-c3nccn3C)cc1)C2 [Compound 14, 3-{3-methyl-7-[4-(1-methyl-1H-imidazol-2-yl)phenyl]-5H,6H,7H,8H-imidazo[1,5-a]pyrazin-1-yl}-2-(propan-2-yl)pyridine]",1 to 10
19,"Cc1nc(-c2cccnc2OC(F)F)c2n1CCN(c1ccc(-c3nc(C(F)(F)F)cn3C)cc1)C2 [Compound 15, 2-(difluoromethoxy)-3-(3-methyl-7-{4-[1-methyl-4-(trifluoromethyl)-1H-imidazol-2-yl]phenyl}-5H,6H,7H,8H-imidazo[1,5-a]pyrazin-1-yl)pyridine]",≤ 1
20,"Cc1nc(-c2cccnc2OCC(F)(F)F)c2n1CCN(c1ccc(-c3nc(C(F)(F)F)cn3C)cc1)C2 [Compound 16, 3-(3-methyl-7-{4-[1-methyl-4-(trifluoromethyl)-1H-imidazol-2-yl]phenyl}-5H,6H,7H,8H-imidazo[1,5-a)pyrazin-1-yl)-2-(2,2,2-trifluoroethoxy)pyridine]",≤ 1
21,"COc1ccc(N2CCn3c(C)nc(-c4cccnc4C(C)C)c3C2)cc1 [Compound 17, 3-[7-(4-methoxyphenyl)-3-methyl-5H,6H,7H,8H-imidazo[1,5-a]pyrazin-1-yl]-2-(propan-2-yl)pyridine]",> 25
22,"Cc1nc(-c2cccnc2C(C)C)c2n1CCN(c1ccc(N(C)C)cc1)C2 [Compound 18, N,N-dimethyl-4-{3-methyl-1-[2-(propan-2-yl)pyridin-3-yl]-5H,6H,7H,8H-imidazo[1,5-a]pyrazin-7-yl}aniline]",> 25
23,"Cc1nc(-c2cccnc2C(C)C)c2n1CCN(c1cc(N3CCCCC3)ncn1)C2 [Compound 19, 4-{3-methyl-1-[2-(propan-2-yl)pyridin-3-yl]-5H,6H,7H,8H-imidazo[1,5-a]pyrazin-7-yl}-6-(piperidin-1-yl)pyrimidine]",10 to 25
24,"Cc1nc(-c2cccnc2OC(C)C)c2n1CCN(c1ccc(-c3nc(C(F)(F)F)cn3C)cc1)C2 [Compound 20, 3-(3-methyl-7-{4-[1-methyl-4-(trifluoromethyl)-1H-imidazol-2-yl]phenyl}-5H,6H,7H,8H-imidazo[1,5-a]pyrazin-1-yl)-2-(propan-2-yloxy)pyridine]",≤ 1
25,"Cc1ccc(N2CCn3c(C)nc(-c4cccnc4C(C)C)c3C2)cc1 [Compound 21, 3-[3-methyl-7-(4-methylphenyl)-5H,6H,7H,8H-imidazo[1,5-a]pyrazin-1-yl]-2-(propan-2-yl)pyridine]",10 to 25
26,"COc1ccc(N2CCn3c(C)nc(-c4cccnc4C(C)C)c3C2)cn1 [Compound 22, 2-methoxy-5-{3-methyl-1-[2-(propan-2-yl)pyridin-3-yl]-5H,6H,7H,8H-imidazo[1,5-a]pyrazin-7-yl}pyridine]",10 to 25
27,"Cc1nc(-c2cccnc2C(C)C)c2n1CCN(c1ccc(OCCN3CCOCC3)cc1)C2 [Compound 23, 4-[2-(4-{3-methyl-1-[2-(propan-2-yl)pyridin-3-yl]-5H,6H,7H,8H-imidazo[1,5-a]pyrazin-7-yl}phenoxy)ethyl]morpholine]",10 to 25
